# From article PMC5641083, “Blockage of FOXP3 transcription factor dimerization and FOXP3/AML1 interaction inhibits T regulatory cell activity: sequence optimization of a peptide inhibitor” (Oncotarget, 2017)
# Key:
# [1] = target: T1, FOXP3/FOXP3 homodimerization (GST-FOXP3 and FOXP3-His) (Homo sapiens, UniProt Q9BZS1); experiment: AlphaScreen FOXP3 homodimerization assay; type: biochemical; conditions: GST-FOXP3 40 nM, FOXP3-His 300 nM
# T1 construct: made in house; host or cells: E. coli
# T1 sequence (Q9BZS1 1-421): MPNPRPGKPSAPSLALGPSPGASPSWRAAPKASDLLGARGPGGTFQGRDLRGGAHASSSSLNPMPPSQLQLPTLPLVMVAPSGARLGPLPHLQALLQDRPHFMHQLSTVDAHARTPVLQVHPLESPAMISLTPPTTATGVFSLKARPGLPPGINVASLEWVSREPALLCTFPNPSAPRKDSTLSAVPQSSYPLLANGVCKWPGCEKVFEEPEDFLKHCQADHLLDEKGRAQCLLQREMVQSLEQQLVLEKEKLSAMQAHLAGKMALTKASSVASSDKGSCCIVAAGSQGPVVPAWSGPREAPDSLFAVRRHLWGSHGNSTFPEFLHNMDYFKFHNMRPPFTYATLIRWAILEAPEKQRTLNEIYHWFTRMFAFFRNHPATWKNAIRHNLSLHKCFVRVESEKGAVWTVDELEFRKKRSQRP
# Description: AML1 is required for IL-2 and IFN-γ gene expression in conventional CD4+ T cells and its interaction with FOXP3 is needed for the immunosuppressive activity of Tregs. On the other hand, it has been described that the leucine zipper region is necessary and sufficient to mediate FOXP3 homo-dimerization, which is required for its function as a transcriptional regulator [13, 15, 20]. Thus, since P60 binds to this FOXP3 intermediate region, we analyzed if it could act as a decoy molecule to inhibit FOXP3 homodimerization or the FOXP3-AML1 heterodimerization. The capacity of FOXP3 to homodimerize was measured using the […] assay platform AlphaScreen™ (Perkin Elmer). Previous protein-cross titration experiment using different concentrations of FOXP3-6His (from 1000 to 0 nM) and GST-FOXP3 (from 300 to 0 nM) allowed us to define the optimal protein concentrations to analyze FOXP3 homodimerization (Figure 2A). […] We also tested if GST tagged FOXP3 was able to interact with AML1 protein tagged with 6 His at the N-terminus. As shown in the cross titration experiments in Figure 2C, a specific FOXP3-AML1 heterodimerization was visualized as an increase in the AlphaScreen signal.
# FOXP3/AML1 heterodimerization, as well as FOXP3/FOXP3 homodimerization were analyzed by Alphascreen technology according to the manufacturer's instructions (Perkin Elmer, Benelux) as previously described.
# CT26 tumor cells = experiment: AH1 vaccination and CT26 tumor challenge; type: in vivo, BALB/c mice; conditions: AH1 in IFA, peptide 10 nanomol/mice/day i.p. 10 days, challenge 10^6 CT26 cells s.c. day 10
# Experimental: In those experiments, BALB/c mice were immunized with peptide AH1 emulsified in IFA and treated daily with saline or with 50 nanomol/mice/day of peptide P60 i.p. from day 0 to day 9 after immunization. To study the efficacy of CM-1315, our optimized version of P60, mice immunized with AH1 were treated with 10 nanomol/mice/day of P60 or CM-1315 and challenged at day 10 by s.c. injection with 10^6 CT26 tumor cells (instead of 5 × 10^5 cells used in our previous study). As control, groups of mice were injected with AH1 alone or left untreated.
# For tumor rejection experiments, Hepa-129 cells (10^6 cells/mouse), were injected subcutaneously (sc) in C3H/HeN mice (n = 6). Ten days later, when the tumor reached 5 mm in diameter, mice were randomly divided into different experimental groups. A group of mice were treated i.p. with anti-PD1 antibodies (50 μg/mouse). Antibody administration was repeated one week after this first administration. A group of mice treated with anti-PD1 also received the cyclic peptide CM-1215 from days 10 to 20 (50 μg/mice/day). Tumor size, presented as the average of two perpendicular diameters (millimetres), was measured at regular intervals. Mice were sacrificed when the mean tumor diameter was greater than 20 mm. […] Tumor size was monitored twice a week with a calliper and it was expressed according to the formula V = (length × width^2)/2. […]
substance,measurement,setting,value
H-RDFQSFRKMWPFFAM-OH [P60],Inhibition of FOXP3 homodimerization (in words),[1],able to impair FOXP3 dimerization in a dose dependent manner
same,Protection against CT26 tumor challenge (in words),CT26 tumor cells,only animals treated with CM-1315 remained protected
